Measurements taken from publication PMC5772633 (Scientific Reports, 2018).
Values joined by “and” are separate entries in the source; they are usually repeats but may differ in a detail not shown here. Equal entries are not always repeated.

Tests used:
wt-D3R = molecular target: T1, wt-D3R (Homo sapiens, UniProt P35462); test: Radioligand ([3H]7-OH-DPAT) binding assay, wild type D3R membranes from SF9 cells
T1 construct: Flag tag (N); His tag (C); expressed in transfected cells; host or cells: SF9 insect cells (membranes), pFastbac/baculovirus

[1] = molecular target: T2, human D3 receptor mutant S182I (Homo sapiens, UniProt P35462, S182I); test: Radioligand binding assay, D3R mutant S182I; conditions: two replicas
T2 construct: Flag tag (N); His tag (C); expressed in transfected cells; host or cells: SF9 insect cells (membranes)
Method: (§1) The D3R mutations were located in the OBS or the vicinity of the OBS and were performed on nine different residues (Fig. 1).
(§2) Point mutants were made by site-directed mutagenesis using 0.5 μl Takara’s PrimeStar Hot start polymerase with 20ng D3R wild type template plasmid DNA, 5 × PrimeStar buffer, 4 μl dNTP mix (2.5 mM each dNTP), plus 0.5 μg forward and reverse primers. 18 cycles were performed at 98 °C for 30 seconds, 55 °C for 30 seconds and 72 °C for 6.5 minutes. The template was degraded with DpnI for 1 hr and transformed into DH5α competent cells.
(§3) Mutants were expressed in SF9 insect cells for 48 hrs with an approximate MOI of 5. A list of mutagenesis primers used can be found in Table S3.
(§4) Binding assays were performed on membranes prepared from transiently transfected human D3 receptor mutants in SF9 insect cells. Frozen cell paste was homogenized by Polytron in 50 mM Tris HCl buffer (pH 7.4 at 4 degrees C) containing 2.0 mM MgCl2. […] 7-OH-DPAT levels were determined by liquid scintillation counting of the filterplates in Ecolume scintillation fluid. […] Ki values were calculated according to the Cheng- Prusoff equation, Ki = IC50/(1 + (L/Kd)), where L is the concentration of the radioligand used in the experiment and the Kd value is the dissociation constant for the radioligand at the mutant receptor (determined previously by saturation analysis).

[2] = molecular target: T3, human D3 receptor mutant E90L (Homo sapiens, UniProt P35462, E90L); test: Radioligand binding assay, D3R mutant E90L; conditions: two replicas
T3 construct: Flag tag (N); His tag (C); expressed in transfected cells; host or cells: SF9 insect cells (membranes)
Method: as §1, §2, §3
Binding assays were performed on membranes prepared from transiently transfected human D3 receptor mutants in SF9 insect cells. Frozen cell paste was homogenized by Polytron in 50 mM Tris HCl buffer (pH 7.4 at 4 degrees C) containing 2.0 mM MgCl2. The cell membranes were spun in a high-speed centrifuge at 40,000 × g for ten minutes. The final pellet was re-suspended in assay buffer (50 mM Tris buffer, 120 mM NaCl, 5 mM MgCl2, 5 mM KCl, 2 mM CaCl2, pH 7.4 at 37 °C). […] 7-OH-DPAT levels were determined by liquid scintillation counting of the filterplates in Ecolume scintillation fluid.

[3] = molecular target: human D3 receptor mutant Y373F (Homo sapiens, UniProt P35462, Y373F); test: Radioligand binding assay, D3R mutant Y373F; conditions: two replicas
Method: as §1, §2, §3, §4

[4] = molecular target: T4, human D3 receptor mutant E90Q (Homo sapiens, UniProt P35462, E90Q); test: Radioligand binding assay, D3R mutant E90Q; conditions: two replicas
T4 construct: Flag tag (N); His tag (C); expressed in transfected cells; host or cells: SF9 insect cells (membranes)
Method: as §1, §2, §3, §4

[5] = molecular target: T5, human D3 receptor mutant V189I (Homo sapiens, UniProt P35462, V189I); test: Radioligand binding assay, D3R mutant V189I; conditions: two replicas
T5 construct: Flag tag (N); His tag (C); expressed in transfected cells; host or cells: SF9 insect cells (membranes)
Method: as §1, §2, §3, §4

[6] = molecular target: T6, human D3 receptor mutant C114L (Homo sapiens, UniProt P35462, C114L); test: Radioligand binding assay, D3R mutant C114L; conditions: two replicas
T6 construct: Flag tag (N); His tag (C); expressed in transfected cells; host or cells: SF9 insect cells (membranes)
Method: as §1, §2, §3, §4

[7] = molecular target: T7, human D3 receptor mutant Y365L (Homo sapiens, UniProt P35462); test: Radioligand binding assay, D3R mutant Y365L; conditions: two replicas
T7 construct: Flag tag (N); His tag (C); expressed in transfected cells; host or cells: SF9 insect cells (membranes)
Method: as §1, §2, §3, §4

[8] = molecular target: human D3 receptor triple mutant Y36L, S182I, V350I (Homo sapiens, UniProt P35462, S182I/V350I/Y36L); test: Radioligand binding assay, D3R triple mutant; conditions: two replicas
Method: as §1, §2, §3, §4

[9] = molecular target: T8, human D3 receptor mutant Y36L (Homo sapiens, UniProt P35462, Y36L); test: Radioligand binding assay, D3R mutant Y36L; conditions: two replicas
T8 construct: Flag tag (N); His tag (C); expressed in transfected cells; host or cells: SF9 insect cells (membranes)
Method: as §1, §2, §3, §4

[10] = molecular target: T9, human D3 receptor mutant I183F (Homo sapiens, UniProt P35462, I183F); test: Radioligand binding assay, D3R mutant I183F
T9 construct: Flag tag (N); His tag (C); expressed in transfected cells; host or cells: SF9 insect cells (membranes)
Method: as §1, §2, §3, §4

[11] = molecular target: T10, human D3 receptor mutant V189A (Homo sapiens, UniProt P35462, V189A); test: Radioligand binding assay, D3R mutant V189A
T10 construct: Flag tag (N); His tag (C); expressed in transfected cells; host or cells: SF9 insect cells (membranes)
Method: as §1, §2, §3, §4

[12] = molecular target: T11, human D3 receptor mutant Y36F (Homo sapiens, UniProt P35462, Y36F); test: Radioligand binding assay, D3R mutant Y36F; conditions: two replicas
T11 construct: Flag tag (N); His tag (C); expressed in transfected cells; host or cells: SF9 insect cells (membranes)
Method: as §1, §2, §3, §4

D2R = system: D2R; design: method as in PMID 27715007; conditions: cited from earlier work
[13] = design: method as in PMID 27715007; conditions: in vivo; cited from earlier work
D3R = conditions: Table 1; cited from earlier work

Row | Structure (SMILES) | Ki (wt-D3R; wild type D3R, Table 1) [nM] | ΔGexp (experimental binding free energy) (wt-D3R; wt D3R) [kcal/mol] | Ki [1] | Ki [2] | Ki [3] | Ki [4] | Ki [5] | Ki [6] | Ki [7] | Ki [8] | Ki [9] | Ki ([10]; D3R mutant I183F, two replicas) | decrease in affinity (fold-shift Ki mutant/Ki wt) ([10]; I183F mutant vs wt D3R) [fold] | Ki ([11]; D3R mutant V189A, two replicas) | decrease in affinity (fold-shift Ki mutant/Ki wt) ([11]; V189A mutant vs wt D3R) [fold] | Ki [12] | D2R receptor occupancy (D2R) [%] | locomotor or catalepsy side effects [13] | Ki (D3R) [nM]
1 | CCN1CCO[C@@H](c2ccc(NS(=O)(=O)c3ccc(C(C)C)cc3)c(C)c2)C1 [Compound 1, PF-4363467] | 3.4 ± 0.4 | -11.6 | 3.6 nM and 2.1 nM | 4.9 nM and 3.7 nM | 14.8 nM and 15.8 nM | 6 nM and 5.4 nM | 8.2 nM and 6.5 nM | 1.6 nM and 1.3 nM | 13.1 nM and 12.5 nM | 29.5 nM and 22 nM | 22 nM and 13 nM | 55 nM and 43 nM | 14 | 24 nM and 30 nM | 8 | 3.2 nM and 2.5 nM | 86 | lack of locomotor or catalepsy side effects | –
2 | CCc1cc(Cl)c(OC)c(C(=O)NC[C@@H]2CCCN2CC)c1O [Compound 2, Eticlopride] | – | – | – | – | – | – | – | – | – | – | – | – | – | – | – | – | – | – | 0.24
